Reference: patent publication US20220204971A1, “Compositions and Methods for Inhibiting Cancers and Viruses” (Icahn School of Medicine at Mount Sinai, priority 2018, published 2022)

Experiments:
[1] = tested on: HSATII; experiment: HSATII RNA RT-qPCR in HCMV-infected HFFs treated with CHX or GCV; assay type: cell-based, human; conditions: for HSATII levels: HFFs, HCMV 1 TCID50/cell, GCV added after 2 h
Procedure: FIGS. 2a-d disclose HSATII induction levels in cells infected with active virus as compared to UV-irradiated virus. a HFFs were infected with untreated or UV-irradiated HCMV (TB40/E-GFP) at 3 TCID50/cell, RNA samples were collected at specified times. b HFFs were treated with CHX or DMSO, as a solvent control, 24 h before HCMV (TB40/E-GFP) infection at 1 TCID50/cell. RNA samples were collected at 24 hpi. c HFFs were infected with HCMV (TB40/E-GFP) at 1 TCID50/cell for 2 h and then media was changed for one containing GCV or DMSO as a solvent control. RNA samples were collected at 24 and 48 hpi. d Tetracycline-inducible […] and/or IE2 MRC-5 and ARPE-19 cells were treated with doxycycline. RNA samples were collected at indicated times. a-d RT-qPCR was performed using HSATII-specific primers. GAPDH was used as an internal control. n=3. Data are presented as a fold change mean±SD. a-c ***P<0.001, ****P<0.0001 by the unpaired, two-tailed t-test with (b, c) or without (a) Welch's correction. ns—not significant. Open circles represent single data points.
(§1) Cyclohexamide (Sigma-Aldrich) and ganciclovir (Sigma-Aldrich) were dissolved in DMSO and used at 100 μg ml^−1 or 50 1.1M concentrations, respectively. Doxycycline (Sigma-Aldrich) was dissolved in water and used at 2 μg ml^−1. Puromycin was dissolved in water and used at 1.5 1.1 g ml^−1 (MRC-5) or 21.1 g ml^−1 (ARPE-19). G418 was dissolved in water and used at 800 μg ml-1 (MRC-5) or 1 mg ml-1 G418 (ARPE-19).
(§2) For quantitative reverse transcription PCR (qRT-PCR) analysis, cells were collected in QIAzol Lysis Reagent (Qiagen). To fractionate RNA, DNA and proteins chloroform was added; samples were spun at 12,000×g for 15 min. at 4° C. […] Quantitative PCR (qPCR) was performed using SYBR Green master mix (Applied Biosystems by Thermo Fisher Scientific, Foster City, Calif.) on the QuantStudio 6 Flex-Real Time PCR System (Applied Biosystems by Thermo Fisher Scientific). […]
(§3) Transcript levels were analyzed using the […] method and GAPDH or B2M were used as an internal control. […]

[2] = tested on: UL99; experiment: UL99 late gene RNA RT-qPCR in HCMV-infected HFFs treated with GCV; assay type: cell-based; conditions: HCMV 1 TCID50/cell, 48 hpi
Procedure: FIG. 12 discloses the accumulation of UL99 gene RNA in the presence of DMSO or GCV in infected cells. HFFs were infected with HCMV (TB40/E-GFP; 1 TCID50/cell) for 2 h and then media was changed for one containing GCV or DMSO as a solvent control. RNA samples were collected at 48 hpi. RT-qPCR was performed using UL99-specific primers. GAPDH was used as an internal control. Data were averaged from at least three experiments and are presented as a fold change mean (SD).
as §1
as §2, with “(Qiagen).” for “(Qiagen). To fractionate RNA, DNA and proteins chloroform was added; samples were spun at 12,000×g for 15 min. at 4° C.”
as §3

[3] = tested on: HCMV (TB40-epi); experiment: HCMV infectious particle yield from LNA-transfected ARPE-19 epithelial cells, PFU/ml; assay type: cell-based; conditions: ARPE-19, PFU/ml; 96 hpi
Procedure: FIG. 26 discloses the effect of HSATII knockdown using four different HSAT-II LNAs on the production of HCMV infectious particles from human retinal pigment cells. Media samples were collected at 96 hpi from ARPE-19 cells transfected with NT-LNA or different HSATII-LNAs 24 h before HCMV (TB40-epi) infection at 1 TCID50/cell. PFU/ml values were determined. Data were averaged from at least three independent experiments and are presented as a mean (SD). Unpaired, two-tailed t-test was used to measure significance. One, two, three or four asterisks represent p<0.05, p<0.01, p<0.001 or p<0.0001, respectively.
Media samples were collected at 96 hpi from ARPE-19 cells transfected with NT-LNA or different HSATII-LNAs 24 h before HCMV (TB40-epi) infection at 1 TCID50/cell. PFU/ml values were determined. Data were averaged from at least three independent experiments and are presented as a mean (SD). […] Cells treated with the combined HSATII-LNA #1 and HSATII-LNA #2 produced only ˜0.6% of intracellular and ˜1% extracellular HCMV viral particles produced by control cells treated with NT-LNA. To compare, cells treated with HSATII-LNA #1 produced ˜33% of intracellular and ˜6% of extracellular HCMV viral particles produced by control cells treated with NT-LNA. Cells treated with HSATII-LNA #2 produced 23% of intracellular and 6% of extracellular HCMV viral particles produced by control cells treated with NT-LNA. Unpaired, two-tailed t-test was used to measure significance. One, two, three or four asterisks represent p<0.05, p<0.01, p<0.001 or p<0.0001, respectively.
Locked nucleic acid oligonucleotides were designed to target identified, highly abundant HSATII transcripts from different chromosomal loci. […] Cells were collected at the indicated time post infection using QIAzol buffer (QIAGEN, Hilden, Germany) and stored at −80° C. until sample processing.

`C[C@@H]1C[C@@H]([C@H](O)CC2CC(=O)NC(=O)C2)C(=O)[C@@H](C)C1` [Cycloheximide] was tested, and the “reduction of HSATII accumulation compared to solvent control” value ([1]; HFFs treated with CHX 24 h before HCMV (TB40/E-GFP) infection at 1 TCID50/cell, 24 hpi) was 33 fold.
In the case of `Nc1nc(O)c2ncn(COC(CO)CO)c2n1` [ganciclovir], the HSATII levels ([1]; 24 hpi) is reported as “did not change”, the HSATII levels ([1]; 48 hpi) is reported as “did not change” and the “accumulation of RNA from the late UL99 gene” value [2] is reported as “blocked”.
For “HSATII-LNA #1: locked nucleic acid oligonucleotide targeting HSATII transcripts, 5′-CCATTCGATAATTCCG-3′ (locked nucleic acid oligonucleotide, LNA positions and linkages not given here)”, the “extracellular HCMV viral particles, % of those produced by control cells treated with NT-LNA” value [3] was about 6% and the “intracellular HCMV viral particles, % of those produced by control cells treated with NT-LNA” value [3] was about 33%.
In the case of “HSATII-LNA #2: locked nucleic acid oligonucleotide targeting HSATII transcripts, 5′-GATTCCATTCGATGAT-3′ (locked nucleic acid oligonucleotide, LNA positions and linkages not given here)”, the “extracellular HCMV viral particles, % of those produced by control cells treated with NT-LNA” value [3] is reported as 6% and the “intracellular HCMV viral particles, % of those produced by control cells treated with NT-LNA” value [3] is reported as 23%.
